Reference: ChEMBL document CHEMBL5723584 (2023)

How the values were obtained:
[1] = biological target: AP2-associated protein kinase 1 (Homo sapiens, UniProt Q2M2I8); assay: Promega NanoBRET (AAK1)
[2] = biological target: Bone morphogenetic protein receptor type-2 (Homo sapiens) (UniProt Q13873); assay: activity of BMPR2(h) at 1.0 µM in the Eurofins Kinase panel; conditions: Compound concentration 1.0 uM
[3] = biological target: Tyrosine-protein kinase BTK (Homo sapiens) (UniProt Q06187); assay: activity of BTK(h) at 1.0 µM in the Eurofins Kinase panel; conditions: Compound concentration 1.0 uM
[4] = biological target: Calcium/calmodulin-dependent protein kinase type IV (Homo sapiens) (UniProt Q16566); assay: activity of CaMKIV(h) at 1.0 µM in the Eurofins Kinase panel; conditions: Compound concentration 1.0 uM
[5] = biological target: Calcium/calmodulin-dependent protein kinase type 1G (Homo sapiens) (UniProt Q96NX5); assay: activity of CaMKIgamma(h) at 1.0 µM in the Eurofins Kinase panel; conditions: Compound concentration 1.0 uM
[6] = biological target: Calcium/calmodulin-dependent protein kinase type 1D (Homo sapiens) (UniProt Q8IU85); assay: activity of CaMKIdelta(h) at 1.0 µM in the Eurofins Kinase panel; conditions: Compound concentration 1.0 uM
[7] = biological target: Calcium/calmodulin-dependent protein kinase kinase 1 (Homo sapiens) (UniProt Q8N5S9); assay: activity of CaMKK1(h) at 1.0 µM in the Eurofins Kinase panel; conditions: Compound concentration 1.0 uM
[8] = biological target: CDK17/Cyclin-Y (Homo sapiens) (UniProt Q00537+Q8ND76); assay: activity of CDK17/cyclinY(h) at 1.0 µM in the Eurofins Kinase panel; type: protein-complex assay; conditions: Compound concentration 1.0 uM
Chain of CDK17/Cyclin-Y (Homo sapiens) (Q00537 whole entry): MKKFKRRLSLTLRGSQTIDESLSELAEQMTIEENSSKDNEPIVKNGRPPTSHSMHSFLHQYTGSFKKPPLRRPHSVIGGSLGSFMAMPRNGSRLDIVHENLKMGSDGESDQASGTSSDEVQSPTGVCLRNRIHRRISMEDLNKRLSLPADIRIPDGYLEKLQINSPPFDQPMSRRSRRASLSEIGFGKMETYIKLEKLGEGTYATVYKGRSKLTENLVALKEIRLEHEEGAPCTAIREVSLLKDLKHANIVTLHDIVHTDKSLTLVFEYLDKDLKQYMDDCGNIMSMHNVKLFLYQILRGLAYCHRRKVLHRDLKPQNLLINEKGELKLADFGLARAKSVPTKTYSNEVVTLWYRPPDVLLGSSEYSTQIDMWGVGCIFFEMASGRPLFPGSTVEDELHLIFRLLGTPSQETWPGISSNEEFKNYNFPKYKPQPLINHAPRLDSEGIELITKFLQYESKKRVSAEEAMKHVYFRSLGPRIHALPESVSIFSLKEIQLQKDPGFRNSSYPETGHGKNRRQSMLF
Chain of CDK17/Cyclin-Y (Homo sapiens) (Q8ND76 2-341 partner limits assumed): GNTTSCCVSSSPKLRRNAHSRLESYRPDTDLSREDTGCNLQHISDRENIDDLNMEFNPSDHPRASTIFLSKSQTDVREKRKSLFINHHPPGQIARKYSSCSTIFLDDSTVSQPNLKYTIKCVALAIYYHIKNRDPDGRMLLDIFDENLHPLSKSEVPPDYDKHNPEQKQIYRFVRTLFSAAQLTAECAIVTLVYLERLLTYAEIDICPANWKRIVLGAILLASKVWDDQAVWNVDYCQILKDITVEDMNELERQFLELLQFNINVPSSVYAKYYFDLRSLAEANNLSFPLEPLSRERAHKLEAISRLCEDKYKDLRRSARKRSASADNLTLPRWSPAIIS

[9] = biological target: Cyclin-dependent kinase-like 3 (Homo sapiens) (UniProt Q8IVW4); assay: activity of CDKL3(h) at 1.0 µM in the Eurofins Kinase panel; conditions: Compound concentration 1.0 uM
[10] = biological target: Transient receptor potential cation channel subfamily M member 7 (Homo sapiens) (UniProt Q96QT4); assay: activity of ChaK1(h) at 1.0 µM in the Eurofins Kinase panel; conditions: Compound concentration 1.0 uM
[11] = biological target: Serine/threonine-protein kinase Chk1 (Homo sapiens) (UniProt O14757); assay: activity of CHK1(h) at 1.0 µM in the Eurofins Kinase panel; conditions: Compound concentration 1.0 uM
Chain of Serine/threonine-protein kinase Chk1 (Homo sapiens) (O14757 whole entry, canonical isoform): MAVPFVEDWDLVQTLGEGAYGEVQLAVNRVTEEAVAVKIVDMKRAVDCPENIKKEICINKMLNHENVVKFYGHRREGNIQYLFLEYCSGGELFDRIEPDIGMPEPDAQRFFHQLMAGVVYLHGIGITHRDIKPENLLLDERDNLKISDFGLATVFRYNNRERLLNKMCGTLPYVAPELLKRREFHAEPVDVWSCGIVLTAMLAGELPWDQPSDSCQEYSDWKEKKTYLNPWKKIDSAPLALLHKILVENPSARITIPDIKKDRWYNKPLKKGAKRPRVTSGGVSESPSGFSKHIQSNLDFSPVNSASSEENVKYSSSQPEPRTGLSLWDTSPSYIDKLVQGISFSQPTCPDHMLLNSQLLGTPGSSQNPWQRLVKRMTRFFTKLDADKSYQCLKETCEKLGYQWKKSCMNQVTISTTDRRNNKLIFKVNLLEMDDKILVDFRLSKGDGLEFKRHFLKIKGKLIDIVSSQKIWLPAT

[12] = biological target: Casein kinase I isoform gamma-1 (Homo sapiens) (UniProt Q9HCP0); assay: activity of CK1gamma1(h) at 1.0 µM in the Eurofins Kinase panel; conditions: Compound concentration 1.0 uM
[13] = biological target: Casein kinase II subunit alpha' (Homo sapiens) (UniProt P19784); assay: activity of CK2alpha2(h) at 1.0 µM in the Eurofins Kinase panel; conditions: Compound concentration 1.0 uM
[14] = biological target: RAF proto-oncogene serine/threonine-protein kinase (Homo sapiens) (UniProt P04049); assay: activity of c-RAF(h) at 1.0 µM in the Eurofins Kinase panel; conditions: Compound concentration 1.0 uM
Chain of RAF proto-oncogene serine/threonine-protein kinase (Homo sapiens) (P04049 whole entry): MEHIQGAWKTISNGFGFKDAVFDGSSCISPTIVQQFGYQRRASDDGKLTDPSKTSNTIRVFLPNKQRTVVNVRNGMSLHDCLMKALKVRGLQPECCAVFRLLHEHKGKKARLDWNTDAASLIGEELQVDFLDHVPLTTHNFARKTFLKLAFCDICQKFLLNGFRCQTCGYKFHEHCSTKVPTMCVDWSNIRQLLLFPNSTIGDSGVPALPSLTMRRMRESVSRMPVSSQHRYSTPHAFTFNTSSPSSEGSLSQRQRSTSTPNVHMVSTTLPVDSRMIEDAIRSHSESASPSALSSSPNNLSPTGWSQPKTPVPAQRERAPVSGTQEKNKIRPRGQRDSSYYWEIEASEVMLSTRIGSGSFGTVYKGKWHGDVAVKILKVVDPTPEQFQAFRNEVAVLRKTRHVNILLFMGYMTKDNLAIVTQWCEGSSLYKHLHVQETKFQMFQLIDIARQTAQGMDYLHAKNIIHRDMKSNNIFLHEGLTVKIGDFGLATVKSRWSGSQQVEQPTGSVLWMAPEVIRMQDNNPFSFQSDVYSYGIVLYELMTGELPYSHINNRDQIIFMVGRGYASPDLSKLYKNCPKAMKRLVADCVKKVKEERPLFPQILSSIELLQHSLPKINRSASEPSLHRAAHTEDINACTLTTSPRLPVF

[15] = biological target: Serine/threonine-protein kinase 17A (Homo sapiens) (UniProt Q9UEE5); assay: activity of DRAK1(h) at 1.0 µM in the Eurofins Kinase panel; conditions: Compound concentration 1.0 uM
[16] = biological target: Ephrin type-A receptor 7 (Homo sapiens) (UniProt Q15375); assay: activity of EphA7(h) at 1.0 µM in the Eurofins Kinase panel; conditions: Compound concentration 1.0 uM
[17] = biological target: Ephrin type-B receptor 1 (Homo sapiens) (UniProt P54762); assay: activity of EphB1(h) at 1.0 µM in the Eurofins Kinase panel; conditions: Compound concentration 1.0 uM
[18] = biological target: Fibroblast growth factor receptor 2 (Homo sapiens) (UniProt P21802); assay: activity of FGFR2(h) at 1.0 µM in the Eurofins Kinase panel; conditions: Compound concentration 1.0 uM
[19] = biological target: Rhodopsin kinase GRK1 (Homo sapiens) (UniProt Q15835); assay: activity of GRK1(h) at 1.0 µM in the Eurofins Kinase panel; conditions: Compound concentration 1.0 uM
[20] = biological target: Mitogen-activated protein kinase kinase kinase kinase 5 (Homo sapiens) (UniProt Q9Y4K4); assay: activity of MAP4K5(h) at 1.0 µM in the Eurofins Kinase panel; conditions: Compound concentration 1.0 uM
[21] = biological target: MAP kinase-activated protein kinase 2 (Homo sapiens) (UniProt P49137); assay: activity of MAPKAP-K2(h) at 1.0 µM in the Eurofins Kinase panel; conditions: Compound concentration 1.0 uM
[22] = biological target: MAP kinase-activated protein kinase 3 (Homo sapiens) (UniProt Q16644); assay: activity of MAPKAP-K3(h) at 1.0 µM in the Eurofins Kinase panel; conditions: Compound concentration 1.0 uM
[23] = biological target: MAPK/MAK/MRK overlapping kinase (Homo sapiens) (UniProt Q9UQ07); assay: activity of MOK(h) at 1.0 µM in the Eurofins Kinase panel; conditions: Compound concentration 1.0 uM
[24] = biological target: Serine/threonine-protein kinase MRCK beta (Homo sapiens) (UniProt Q9Y5S2); assay: activity of MRCKbeta(h) at 1.0 µM in the Eurofins Kinase panel; conditions: Compound concentration 1.0 uM
[25] = biological target: Serine/threonine-protein kinase MRCK gamma (Homo sapiens) (UniProt Q6DT37); assay: activity of MRCKgamma(h) at 1.0 µM in the Eurofins Kinase panel; conditions: Compound concentration 1.0 uM
[26] = biological target: Serine/threonine-protein kinase 26 (Homo sapiens) (UniProt Q9P289); assay: activity of MST4(h) at 1.0 µM in the Eurofins Kinase panel; conditions: Compound concentration 1.0 uM
[27] = biological target: Serine/threonine-protein kinase Nek7 (Homo sapiens) (UniProt Q8TDX7); assay: activity of NEK7(h) at 1.0 µM in the Eurofins Kinase panel; conditions: Compound concentration 1.0 uM
Chain of Serine/threonine-protein kinase Nek7 (Homo sapiens) (Q8TDX7 whole entry, looked up): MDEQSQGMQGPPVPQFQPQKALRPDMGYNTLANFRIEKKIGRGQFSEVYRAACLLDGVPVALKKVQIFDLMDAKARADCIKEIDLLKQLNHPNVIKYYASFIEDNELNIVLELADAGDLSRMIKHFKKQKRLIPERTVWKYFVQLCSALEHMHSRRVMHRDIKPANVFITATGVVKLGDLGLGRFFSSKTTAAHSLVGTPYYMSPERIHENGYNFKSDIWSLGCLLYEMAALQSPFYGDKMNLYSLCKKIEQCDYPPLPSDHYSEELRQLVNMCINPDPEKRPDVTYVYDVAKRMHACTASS

[28] = biological target: Phosphatidylinositol 4-phosphate 5-kinase type-1 gamma (Homo sapiens) (UniProt O60331); assay: activity of PIP5K1gamma(h) at 1.0 µM in the Eurofins Kinase panel; conditions: Compound concentration 1.0 uM
[29] = biological target: cAMP-dependent protein kinase (PKA) (Homo sapiens) (UniProt P22694+P17612+P22612); assay: activity of PKA(h) at 1.0 µM in the Eurofins Kinase panel; type: protein assay; conditions: Compound concentration 1.0 uM
[30] = biological target: Protein kinase C delta type (Homo sapiens) (UniProt Q05655); assay: activity of PKCdelta(h) at 1.0 µM in the Eurofins Kinase panel; conditions: Compound concentration 1.0 uM
[31] = biological target: Protein kinase C iota type (Homo sapiens) (UniProt P41743); assay: activity of PKCiota(h) at 1.0 µM in the Eurofins Kinase panel; conditions: Compound concentration 1.0 uM
[32] = biological target: Serine/threonine-protein kinase PLK1 (Homo sapiens) (UniProt P53350); assay: activity of Plk1(h) at 1.0 µM in the Eurofins Kinase panel; conditions: Compound concentration 1.0 uM
Chain of Serine/threonine-protein kinase PLK1 (Homo sapiens) (P53350 whole entry): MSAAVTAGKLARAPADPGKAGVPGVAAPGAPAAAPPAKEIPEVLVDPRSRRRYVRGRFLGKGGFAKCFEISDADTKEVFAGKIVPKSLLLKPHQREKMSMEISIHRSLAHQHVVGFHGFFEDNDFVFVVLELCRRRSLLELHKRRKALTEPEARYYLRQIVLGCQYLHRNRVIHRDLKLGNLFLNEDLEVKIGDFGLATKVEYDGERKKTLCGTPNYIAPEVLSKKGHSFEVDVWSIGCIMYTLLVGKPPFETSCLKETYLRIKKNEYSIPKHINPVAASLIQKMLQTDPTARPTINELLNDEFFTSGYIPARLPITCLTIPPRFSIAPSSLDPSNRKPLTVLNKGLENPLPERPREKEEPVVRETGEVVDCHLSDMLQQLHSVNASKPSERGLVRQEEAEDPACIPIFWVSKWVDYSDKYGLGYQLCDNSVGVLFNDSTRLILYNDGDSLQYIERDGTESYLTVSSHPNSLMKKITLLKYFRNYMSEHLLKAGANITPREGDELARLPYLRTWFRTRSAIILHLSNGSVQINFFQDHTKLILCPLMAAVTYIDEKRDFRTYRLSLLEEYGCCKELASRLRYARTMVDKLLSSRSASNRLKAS

[33] = biological target: cGMP-dependent protein kinase 2 (Homo sapiens) (UniProt Q13237); assay: activity of PRKG2(h) at 1.0 µM in the Eurofins Kinase panel; conditions: Compound concentration 1.0 uM
[34] = biological target: Serine/threonine-protein kinase SIK1 (Homo sapiens) (UniProt P57059); assay: activity of SIK(h) at 1.0 µM in the Eurofins Kinase panel; conditions: Compound concentration 1.0 uM
Chain of Serine/threonine-protein kinase SIK1 (Homo sapiens) (P57059 whole entry): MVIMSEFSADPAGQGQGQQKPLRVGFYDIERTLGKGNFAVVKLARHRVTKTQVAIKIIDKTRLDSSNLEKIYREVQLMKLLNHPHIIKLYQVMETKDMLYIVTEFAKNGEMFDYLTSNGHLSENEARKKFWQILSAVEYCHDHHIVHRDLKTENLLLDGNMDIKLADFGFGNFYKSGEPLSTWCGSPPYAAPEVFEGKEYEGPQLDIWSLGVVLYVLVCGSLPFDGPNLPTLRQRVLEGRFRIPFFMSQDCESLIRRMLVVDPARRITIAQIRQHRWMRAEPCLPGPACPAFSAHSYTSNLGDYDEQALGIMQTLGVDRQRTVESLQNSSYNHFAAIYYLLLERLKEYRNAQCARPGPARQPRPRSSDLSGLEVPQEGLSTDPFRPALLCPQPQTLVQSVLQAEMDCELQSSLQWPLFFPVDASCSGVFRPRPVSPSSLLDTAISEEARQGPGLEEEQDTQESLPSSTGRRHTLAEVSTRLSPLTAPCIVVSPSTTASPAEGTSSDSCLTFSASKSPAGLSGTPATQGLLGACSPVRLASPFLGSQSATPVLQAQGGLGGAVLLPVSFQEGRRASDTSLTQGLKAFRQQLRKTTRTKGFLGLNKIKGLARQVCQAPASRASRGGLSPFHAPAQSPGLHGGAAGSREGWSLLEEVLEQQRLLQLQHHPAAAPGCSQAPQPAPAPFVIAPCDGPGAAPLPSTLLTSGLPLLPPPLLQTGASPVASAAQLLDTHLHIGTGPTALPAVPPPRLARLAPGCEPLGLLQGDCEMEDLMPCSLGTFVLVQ

[35] = biological target: Serine/threonine-protein kinase tousled-like 1 (Homo sapiens) (UniProt Q9UKI8); assay: activity of TLK1(h) at 1.0 µM in the Eurofins Kinase panel; conditions: Compound concentration 1.0 uM
Chain of Serine/threonine-protein kinase tousled-like 1 (Homo sapiens) (Q9UKI8 whole entry): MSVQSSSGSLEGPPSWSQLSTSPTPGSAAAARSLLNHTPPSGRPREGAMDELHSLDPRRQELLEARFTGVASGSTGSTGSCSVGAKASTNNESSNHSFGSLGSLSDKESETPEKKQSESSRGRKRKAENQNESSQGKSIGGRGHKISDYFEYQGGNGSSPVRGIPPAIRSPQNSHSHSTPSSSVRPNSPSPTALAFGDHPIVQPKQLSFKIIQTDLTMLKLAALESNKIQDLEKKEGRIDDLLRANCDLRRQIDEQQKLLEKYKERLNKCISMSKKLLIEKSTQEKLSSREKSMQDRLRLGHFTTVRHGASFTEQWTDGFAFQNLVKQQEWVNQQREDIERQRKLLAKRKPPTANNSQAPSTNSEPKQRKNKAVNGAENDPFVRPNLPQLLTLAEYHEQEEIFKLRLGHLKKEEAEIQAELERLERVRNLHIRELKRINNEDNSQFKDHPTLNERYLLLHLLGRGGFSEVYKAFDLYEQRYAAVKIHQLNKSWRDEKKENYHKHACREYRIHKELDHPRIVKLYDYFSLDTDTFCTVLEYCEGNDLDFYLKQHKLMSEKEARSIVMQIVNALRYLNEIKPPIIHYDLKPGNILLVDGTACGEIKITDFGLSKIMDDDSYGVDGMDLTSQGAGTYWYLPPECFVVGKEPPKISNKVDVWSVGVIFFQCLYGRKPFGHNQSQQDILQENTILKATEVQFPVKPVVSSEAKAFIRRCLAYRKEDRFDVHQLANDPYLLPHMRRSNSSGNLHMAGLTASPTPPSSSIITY

[36] = biological target: NT-3 growth factor receptor (Homo sapiens) (UniProt Q16288); assay: activity of TrkC(h) at 1.0 µM in the Eurofins Kinase panel; conditions: Compound concentration 1.0 uM
[37] = biological target: Testis-specific serine/threonine-protein kinase 2 (Homo sapiens) (UniProt Q96PF2); assay: activity of TSSK2(h) at 1.0 µM in the Eurofins Kinase panel; conditions: Compound concentration 1.0 uM
Chain of Testis-specific serine/threonine-protein kinase 2 (Homo sapiens) (Q96PF2 whole entry): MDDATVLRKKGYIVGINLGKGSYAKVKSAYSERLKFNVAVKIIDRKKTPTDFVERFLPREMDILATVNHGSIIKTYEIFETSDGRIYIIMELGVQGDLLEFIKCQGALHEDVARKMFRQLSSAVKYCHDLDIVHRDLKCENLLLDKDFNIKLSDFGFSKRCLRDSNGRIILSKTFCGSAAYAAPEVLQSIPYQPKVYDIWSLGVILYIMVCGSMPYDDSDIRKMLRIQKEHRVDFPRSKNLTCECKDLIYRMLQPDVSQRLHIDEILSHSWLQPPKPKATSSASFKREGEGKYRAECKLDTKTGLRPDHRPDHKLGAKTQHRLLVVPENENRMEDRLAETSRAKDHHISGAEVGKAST

[38] = biological target: Dual specificity protein kinase TTK (Homo sapiens) (UniProt P33981); assay: activity of TTK(h) at 1.0 µM in the Eurofins Kinase panel; conditions: Compound concentration 1.0 uM
[39] = biological target: Death-associated protein kinase 3 (Homo sapiens) (UniProt O43293); assay: activity of ZIPK(h) at 1.0 µM in the Eurofins Kinase panel; conditions: Compound concentration 1.0 uM

IC50 [1]: 6.2 µM (not active)
activity [2]: 85%
activity [3]: 122%
activity [4]: 99%
activity [5]: 110%
activity [6]: 89%
activity [7]: 89%
activity [8]: 108%
activity [9]: 79%
activity [10]: 106%
activity [11]: 108%
activity [12]: 101%
activity [13]: 115%
activity [14]: 106%
activity [15]: 80%
activity [16]: 114%
activity [17]: 83%
activity [18]: 89%
activity [19]: 86%
activity [20]: 92%
activity [21]: 72%
activity [22]: 125%
activity [23]: 90%
activity [24]: 100%
activity [25]: 98%
activity [26]: 106%
activity [27]: 88%
activity [28]: 102%
activity [29]: 109%
activity [30]: 93%
activity [31]: 110%
activity [32]: 111%
activity [33]: 110%
activity [34]: 105%
activity [35]: 82%
activity [36]: 86%
activity [37]: 113%
activity [38]: 102%
Compound: Cc1cc2c(-c3ccc(NC(=O)[C@H](N)CC(C)(C)C)cc3C)ccnc2[nH]1
activity [39]: 94%
